Measurements reported in patent publication EP2431041A1, “PHARMACEUTICAL COMPOSITION FOR TREATING CARDIOVASCULAR DISORDER AND USE THEREOF” (Chengdu Kanghong Pharmaceutical Co., Ltd., priority 2009, dated 2010).

Legend:
[1] = test system: rat with an acute myocardial ischemia caused by PIT; experiment: rat myocardial ischemia caused by pituitrin (PIT), ST segment of ECG (Test Example 5); assay type: in vivo, SD rats; conditions: for ΔST Σ: sum of ST segment shift; for ΔST 10 sec / ΔST 30 sec / ΔST 1 min / ΔST 2 min / ΔST 4 min / ΔST 6 min / ΔST 8 min / ΔST 10 min / ΔST 13 min / ΔST 15 min: time after PIT injection
Method: Each animal in all groups was intragastrically administered with the corresponding drug at a volume of 10 ml/kg, for 7 successive days. The rat was injected intraperitoneally with 1% sodium pentobarbital (30 mg/kg) 100 min after the final administration. When anesthetized, the animal was immobilized onto a frog board and subjected to trace of normal electrocardiogram over 2 min with Lead II. Then, PIT (1.5 IU/kg) was injected slowly over 20 s into the rat through its tail vein. The changes in the electrocardiogram were traced in 15 min after PIT injection. The data from the ST segment were collected at the time-points of 10 s, 30 s, 1 min, 2 min, 4 min, 6 min, 8 min, 10 min, 13 min, and 15 min. ST segment shifts at the various time-points after modeling were compared.

[2] = test system: rabbit with lipid disorders; experiment: lipid disorders in rabbit, serum TC and TG (Test Example 8); assay type: in vivo, Japanese white rabbit
Source text: Procedure: Animals were subjected to acclimation feeding for 10 days. […] After raised with the feed for 15 days, the animals were subjected to blood sampling from central ear artery while fasting. The sera were separated and analyzed for various blood lipid indices. From 40 animals raised with the high-fat feed, 30 animals were selected on the basis of TC content and assigned into five groups by randomized block design with six animals per group; six animals raised with the basal feed were used as the blank control group. […] Administration lasted for 4 weeks. […] ANOVA of randomized block design was used for comparisons among multiple groups, and SNK-q test was used for comparisons between two groups.
Blood samples were collected from the fasting animals in each of the groups of the experiment prior to the administration and in 24 h after the final administration and assayed for the content of total cholesterol (TC) and triglyceride (TG). Table 11 Effect of the drugs in each of the groups on serum TC and TG levels ( x ± s, n =6).

Beagle canines = experiment: long-term toxicity test in canine (21 days): ALT in blood and other indices; assay type: in vivo; conditions: intragastric once per day
Source text: Animals: Conventional, healthy adult Beagle canines, evenly composed of males and females, 6-8 month-old, body weight of 9 - 11 kg.
Medicaments: Z01 (echinocystic acid:oleanolic acid = 3:1, prepared by the method in Example 4, in which the total content of the echinocystic acid and the oleanolic acid is 99%), in-house-made off-white tablet, Lot number: 090205; Z02 (echinocystic acid:oleanolic acid = 1:1, prepared by the method in Example 1, in which the amount of echinocystic acid and oleanolic acid accounts to 94.2% of the amount of the extract), in-house-made off-white tablet, Lot number: 090206; in-house-made echinocystic acid EA (containing 98.5% of echinocystic acid), pure-white powder, Lot number: 090107; physiological saline, colorless clarified liquid, provided by Chengdu QingShan LiKang Pharmarceutical co., Ltd., Lot number: A0803025; Alanine Transarninase (ALT) Kit, provided by Sichuan MiKe Science & Technology Co., Ltd., Lot number: 1007071.
Major instruments: a fully automated blood biochemistry analyzer (Roche Integra 400 Plus, Switzerland), a fully automated hematology analyzer (Abbott CELL-DYN 3700SL, USA), a fully automated blood coagulation analyzer (SYSMEX CA-500, Japan), a four-channel physiological recording system (RM6240, Chengdu Instrument Factory, China), electronic balance, etc.
Procedure: The normal Beagle canines were subjected to quanrantine for two weeks and a dog with abnormal parameters was rejected. The selected dogs were assigned randomly into ten groups: blank control group, low dose Z01 group (the dosage of echinocystic acid, 50 mg/kg), medium dose Z01group (the dosage of echinocystic acid, 150 mg/kg), high dose Z01 group (the dosage of echinocystic acid, 250 mg/kg), Z02 low dose group (the dosage of echinocystic acid, 50 mg/kg), medium dose Z02 group (the dosage of echinocystic acid, 150 mg/kg), high dose Z02 group (echinocystic acid is 250 mg/kg), low dose EA group (50mg/kg), medium dose EA group (150mg/kg), high dose EA group (250mg/kg), with 8 animals per group evenly composed of males and females. All of the dogs in individual groups were intragastrically administered at a volume of 10 ml/kg, once per day and successively for 21 days. Prior to and at Day 21 after the administration, samples of urine excreted naturally in the morning and blood from forelimb vein were collected respectively for urine routine, blood routine, and coagulation-time determination, meanwhile the lead II electrocardiogram was traced. Prior to the administration and at Day 4, Day 7, Day 14, and Day 21 after the first administration, blood samples were collected from the canine forelimb vein and assayed on the biochemical indicator associated with liver function. In twenty-four hours after the final administration, the animals in each group were dissected, autopsied systematically and observed with naked eyes. The parenchymal organs were weighed, subjected to calculation of organ coefficients, and examined histopathologically. […] Pathologic results were descriptively discussed.

[3] = OA 17.0 mg/kg intragastric 7 days
[4] = OA 4.0 mg/kg intragastric 4 weeks
[5] = echinocystic acid content 50 mg/kg
[6] = echinocystic acid content 150 mg/kg
[7] = echinocystic acid content 250 mg/kg
[8] = EA 50.8 mg/kg intragastric 7 days
[9] = EA 12.2 mg/kg intragastric 4 weeks

Q: `CC1(C)CC[C@]2(C(=O)O)CC[C@]3(C)C(=CC[C@@H]4[C@@]5(C)CC[C@H](O)C(C)(C)[C@@H]5CC[C@]43C)[C@@H]2C1` [OA, oleanolic acid] was tested. Which “ΔST Σ” value [1, 3] did it give?
A: 0.739± 0.408Δ mV

Q: What about the “ΔST 10 sec” value [1, 3] of the same molecule?
A: 0.132± 0.113 mV

Q: What about the “ΔST 30 sec” value [1, 3] of the same molecule?
A: 0.068± 0.044 mV

Q: And the “ΔST 1 min” value [1, 3]?
A: 0.079± 0.052 mV

Q: What about the “ΔST 2 min” value [1, 3] of the same molecule?
A: 0.061± 0.034 mV

Q: And the “ΔST 4 min” value [1, 3]?
A: 0.082± 0.055 mV

Q: What about the “ΔST 6 min” value [1, 3] of the same molecule?
A: 0.080± 0.067 mV

Q: What about the “ΔST 8 min” value [1, 3] of the same molecule?
A: 0.073± 0.037 mV

Q: And the “ΔST 10 min” value [1, 3]?
A: 0.051± 0.032 mV

Q: What about the “ΔST 13 min” value [1, 3] of the same molecule?
A: 0.060± 0.037 mV

Q: What about the “ΔST 15 min” value [1, 3] of the same molecule?
A: 0.053± 0.042 mV

Q: And the “Serum TC After administration” value [2, 4]?
A: 12.05 ± 6.48 mmol/L

Q: And the “Serum TC prior to administration” value [2, 4]?
A: 14.97 ± 5.22 mmol/L

Q: And the “Serum TG After administration” value [2, 4]?
A: 1.83 ± 1.02 mmol/L

Q: And the “Serum TG prior to administration” value [2, 4]?
A: 2.06 ± 0.44 mmol/L

Q: Which “ALT at different time-points after administration, Day 4” value (“ALT at different time-points … Day 4” below) (Beagle canines; [5]) does the source give for `CC1(C)CC[C@]2(C(=O)O)[C@H](O)C[C@]3(C)C(=CC[C@@H]4[C@@]5(C)CC[C@H](O)C(C)(C)[C@@H]5CC[C@]43C)[C@@H]2C1` [EA, echinocystic acid] here?
A: 41.4±9.3 U/L

Q: And the “ALT at different time-points after administration, Day 7” value (“ALT at different time-points … Day 7” below) (Beagle canines; [5])?
A: 60.3±11.6 U/L

Q: What about the “ALT at different time-points after administration, Day 14” value (“ALT at different time-points … Day 14” below) (Beagle canines; [5]) of the same molecule?
A: 58.3±9.1 U/L

Q: And the “ALT at different time-points after administration, Day 21” value (“ALT at different time-points … Day 21” for short) (Beagle canines; [5])?
A: 69.7±6.2 U/L

Q: What about the “ALT, Prior to administration” value (Beagle canines; [5]) of the same molecule?
A: 38.8±5.8 U/L

Q: What about the “ALT at different time-points … Day 4” value (Beagle canines; [6]) of the same molecule?
A: 42.6±8.9 U/L

Q: And the “ALT at different time-points … Day 7” value (Beagle canines; [6])?
A: 70.6±22.3 U/L

Q: What about the “ALT at different time-points … Day 14” value (Beagle canines; [6]) of the same molecule?
A: 121.3±19.3 U/L

Q: And the “ALT at different time-points … Day 21” value (Beagle canines; [6])?
A: 124.5±35.3 U/L

Q: What about the “ALT, Prior to administration” value (Beagle canines; [6]) of the same molecule?
A: 40.3±6.2 U/L

Q: And the “ALT at different time-points … Day 4” value (Beagle canines; [7])?
A: 45.4±9.9 U/L

Q: And the “ALT at different time-points … Day 7” value (Beagle canines; [7])?
A: 146.5±49.0 U/L

Q: What about the “ALT at different time-points … Day 14” value (Beagle canines; [7]) of the same molecule?
A: 167.5±43.3 U/L

Q: What about the “ALT at different time-points … Day 21” value (Beagle canines; [7]) of the same molecule?
A: 151.3±86.6 U/L

Q: What about the “ALT, Prior to administration” value (Beagle canines; [7]) of the same molecule?
A: 37.3±5.2 U/L

Q: And the “ΔST Σ” value [1, 8]?
A: 0.653± 0.367 mV

Q: And the “ΔST 10 sec” value [1, 8]?
A: 0.089± 0.089 mV

Q: What about the “ΔST 30 sec” value [1, 8] of the same molecule?
A: 0.060± 0.053 mV

Q: What about the “ΔST 1 min” value [1, 8] of the same molecule?
A: 0.064± 0.032 mV

Q: What about the “ΔST 2 min” value [1, 8] of the same molecule?
A: 0.075± 0.063 mV

Q: What about the “ΔST 4 min” value [1, 8] of the same molecule?
A: 0.060± 0.039 mV

Q: What about the “ΔST 6 min” value [1, 8] of the same molecule?
A: 0.063± 0.045 mV

Q: And the “ΔST 8 min” value [1, 8]?
A: 0.070± 0.048 mV

Q: And the “ΔST 10 min” value [1, 8]?
A: 0.061± 0.042 mV

Q: What about the “ΔST 13 min” value [1, 8] of the same molecule?
A: 0.055± 0.039 mV

Q: And the “ΔST 15 min” value [1, 8]?
A: 0.056± 0.048 mV

Q: What about the “Serum TC After administration” value [2, 9] of the same molecule?
A: 9.77 ± 6.30 mmol/L

Q: What about the “Serum TC prior to administration” value [2, 9] of the same molecule?
A: 15.07 ± 5.48 mmol/L

Q: What about the “Serum TG After administration” value [2, 9] of the same molecule?
A: 1.64 ± 0.89 mmol/L

Q: And the “Serum TG prior to administration” value [2, 9]?
A: 2.17 ± 1.04 mmol/L
